Experimental data taken from article PMC6222828, “Synthesis of Gemcitabine-Threonine Amide Prodrug Effective on Pancreatic Cancer Cells with Improved Pharmacokinetic Properties” (Molecules : A Journal of Synthetic Chemistry and Natural …, 2018).
“Also recorded” adds a separate entry of the source. Where two headings read alike, the source gives them in different places.

Experiments:
A549 (lung cancer cells) = assay: MTT cytotoxicity assay in A549 cells; type: cell-based; conditions: 1 μM, 48 h
Experimental: (§1) Figure 3 Growth-inhibitory effects of gemcitabine and of its amino-acid-conjugated derivatives on BxPC-3, MIAPaCa-2, A549, MDA-MB-231 B16 cells after exposure to 1 μM concentrations for 48 h, as estimated by MTT assay (mean ± SD, n = 3). Experiments were performed three times independently. * p < 0.05, compared with free gemcitabine group.
(§2) Human pancreatic cancer cells (MIAPaCa-2, BxPC-3 and AsPC-1), lung cancer cell lines (A549), human breast cancer cell lines (MDA-MB-231) and melanoma cell lines (B16) were purchased from the American Type Culture Collection (Manassas, VA, USA). MIAPaCa-2 and B16-F10 cells were cultured in Dulbecco’s modified Eagle’s medium (DMEM) supplemented with 10% heat-inactivated fetal bovine serum (FBS) and 1% penicillin/streptomycin. Aspc-1, BxPC-3 MDA-MB-231 and A549 cells were cultured in Roswell Park Memorial Institute 1640 (RPMI-1640) medium supplemented with 10% FBS and 1% penicillin/streptomycin. FBS and all other reagents used for cell culture were purchased from Invitrogen (Carlsbad, CA, USA). Cultures were maintained at 37 °C in 95% air /5% CO2 humidified atmosphere.
(§3) Cancer cell viabilities after treatment with gemcitabine or its derivatives were quantified using MTT assay as described previously. […] After incubation for 4 h, optical densities (OD) were determined using a microplate reader by measuring absorbances at 540 nm.

[1] = parameters: method as in PMID 18519786; conditions: in man; cited from earlier work
[2] = parameters: method as in PMID 19860433; conditions: cited from earlier work
[3] = Systemic (intravenous) pharmacokinetics in rats; type: in vivo, rat; conditions: 4 mg/kg i.v.
Experimental: This study was performed in male Sprague-Dawley (SD) rats (Orient Bio, Sungnam, Korea), as described previously. Rats were provided water and food ad libitum and maintained under a 12:12-h light/dark cycle. On the experimental day, a femoral vein and contralateral artery were cannulated using an Intramedic™ polyethylene tube (PE-50; Becton Dickinson Diagnostics, Sparks, MD, USA) under Zoletil induced anesthesia (50 mg/kg intramuscularly; Virbac, Carros, France). For the intravenous pharmacokinetic study, Gem-Thr or gemcitabine solution were injected into a femoral vein at 4 mg/kg. Blood (~0.22 mL) was taken from the femoral artery at 0 (blank), 1, 5, 15, 30, 60, 120, 240, 480, 720, or 1440 min. To prevent blood loss, the same volume of normal saline was injected intravenously at each time point. Plasma was obtained immediately centrifugation and then stored at −80 °C prior to LC-MS/MS.
The pharmacokinetic parameters of Gem-Thr, gemcitabine, Gem-Thr plus gemcitabine, and free gemcitabine were calculated by non-compartmental analysis using WinNonlin (Version 3.1; Pharsight, Mountain View, CA, USA), as described previously (Park et al., 2016).
To determine concentrations of Gem-Thr and gemcitabine in rat plasma, plasma samples were deproteinized by adding two volumes of acetonitrile containing internal standard (phenacetin). After mixing, mixtures were centrifuged at 14,000× g for 10 min.
Aliquots of supernatants (2-µL) were injected into the LC-MS/MS system, which consisted of an Agilent HPLC and an Agilent 6490 QQQ mass spectrometer equipped with an ESI+ Agilent Jet Stream ion source (Agilent Technologies, Santa Clara, CA, USA). The separation of each drug and IS from endogenous plasma substances was achieved on a Synergi Polar-RP 80A column (150 × 2.0 mm, 4 μm; Phenomenex, Torrance, CA, USA). The mobile phase consisted of 0.1% formic acid and acetonitrile (20:80, v/v) at a flow rate of 0.2 mL/min. The column and autosampler tray were maintained at 25 and 4 °C, respectively. Gemcitabine, Gem-Thr, and the IS were quantified by multiple-reaction monitoring (MRM) in positive electrospray ionization mode. Respective precursor-to-product ion transitions were as follows: Gemcitabine, 264.1→112.1, Gem-Thr, 387.1→343.2, and IS (phenacetin), 180.2→162.2. Data acquisition was performed using Mass Hunter software (ver. A.02.00; Agilent Technologies).

MIAPaCa-2 cells = assay: MTT cytotoxicity assay in MIAPaCa-2 cells; type: cell-based, Human; conditions: 1 μM, 48 h
Experimental: as §1, §2, §3

BxPC-3 cells [4] = assay: MTT cytotoxicity assay in BxPC-3 cells; type: cell-based, Human; conditions: 48 h
Experimental: as §1, §2
Cancer cell viabilities after treatment with gemcitabine or its derivatives were quantified using MTT assay as described previously. Briefly, cells were seeded onto 96-well plates at 3 × 10^3 cells per well and incubated at 37 °C. The cells were treated with each compound at indicated concentrations for 48 h and then, 20 μL of MTT labeling mixture was added to each well. After incubation for 4 h, optical densities (OD) were determined using a microplate reader by measuring absorbances at 540 nm.

B16 (melanoma cells) = assay: MTT cytotoxicity assay in B16 cells; type: cell-based; conditions: 1 μM, 48 h
Experimental: Human pancreatic cancer cells (MIAPaCa-2, BxPC-3 and AsPC-1) [21], lung cancer cell lines (A549) [22], human breast cancer cell lines (MDA-MB-231) [23] and melanoma cell lines (B16) [24] were purchased from the American Type Culture Collection (Manassas, VA, USA). MIAPaCa-2 and B16-F10 cells were cultured in Dulbecco’s modified Eagle’s medium (DMEM) supplemented with 10% heat-inactivated fetal bovine serum (FBS) and 1% penicillin/streptomycin. Aspc-1, BxPC-3 MDA-MB-231 and A549 cells were cultured in Roswell Park Memorial Institute 1640 (RPMI-1640) medium supplemented with 10% FBS and 1% penicillin/streptomycin. […] Cultures were maintained at 37 °C in 95% air /5% CO2 humidified atmosphere.
Cancer cell viabilities after treatment with gemcitabine or its derivatives were quantified using MTT assay as described previously [25]. Briefly, cells were seeded onto 96-well plates at 3 × 10^3 cells per well and incubated at 37 °C. The cells were treated with each compound at indicated concentrations for 48 h and then, 20 μL of MTT labeling mixture was added to each well. After incubation for 4 h, optical densities (OD) were determined using a microplate reader by measuring absorbances at 540 nm.

[5] = system: MDA-MB-231 (breast cancer cells); assay: MTT cytotoxicity assay in MDA-MB-231 cells; type: cell-based, human; conditions: 1 μM, 48 h
Experimental: as §1, §2, §3

BxPC-3 cells [6] = assay: Apoptosis: cleaved PARP western blot and TUNEL assay; type: cell-based, Human; conditions: 1 µM, 24 h treatment
Experimental: BxPC-3 cells were washed with DPBS and lysed with RIPA buffer (Biosesang, Seongnam, Korea) containing 150 mM NaCl, 1% Triton X-100, 1% sodium deoxycholate, 0.1% SDS, 50 mM Tris-HCl (pH 7.5), 2 mM EDTA (pH 8.0), and Xpert protease inhibitor and phosphatase inhibitor Cocktail (GenDEPOT, Barker, TX, USA). Proteins were separated by 8% or 15% SDS-PAGE (sodium dodecylsulfate-polyacrylamide gel electrophoresis) and transferred to polyvinylidene fluoride (PVDF) membranes. […] Antibody binding was detected using an enhanced chemiluminescence (ECL) reagent (Bio-Rad, Hercules, CA, USA) using primary antibodies specific to proteins of interest, and proteins were detected using X-ray film and enhanced chemiluminescence reagent. Primary antibodies against the following were used: LAT-1, cleaved PARP (Cell Signaling Technologies, Beverly, MA, USA), GAPDH (Abcam, Cambridge, MA, USA), and β-actin (Sigma Aldrich, St. Louis, MO, USA). Secondary antibodies were purchased from Cell signaling technology.
TUNEL assay was conducted with the ApopTag® Peroxidase In Situ Apoptosis Detection Kit (Merck Millipore, Burlington, MA, USA). Briefly, BxPC-3 cells were seeded onto 18-mm cover glasses in medium and grown to ~70% confluence over 24 h.

[7] = 37 °C
Experimental: The metabolic stability of Gem-Thr was examined in the presence of PBS (pH 7.4), rat plasma, or liver microsomes as described previously (Maeng et al., 2014). Fresh rat plasma was obtained from sacrificed SD rats (260–280 g) after centrifuging blood (12,000× g, 15 min). Rat liver microsomes were obtained from BD Gentest. Gem-Thr (10 µM) was spiked into PBS, blank rat plasma, or liver microsomes (1 mg protein/mL) and incubated in a shaking water bath at 37 °C for 8 h. Aliquots (50-µL) were taken after 0, 15, 30, 60, 120, 240, […], or 480 min of incubation, immediately pretreated with ice-cold methanolic solution including the internal standard, vortexed for 3 min and centrifuged (12,000× g, 10 min). Supernatants were stored at −80 °C until required for analysis.

[8] = analyte = administered compound

SMILES: Nc1ccn([C@@H]2O[C@H](CO)[C@@H](O)C2(F)F)c(=O)n1 [gemcitabine, 2′-2′-difluorodeoxycytidine]
- anti-cancer effect versus vehicle treated controls (A549 (lung cancer cells)): neither gemcitabine nor gemcitabine derivatives had any significant anti-cancer effect
- half-life [1]: 9 min
- oral bioavailability (BA) [2]: low oral bioavailability
- clearance ([3]; male, Sprague-Dawley, rat, plasma, iv, analyte = administered compound): 4.23 ± 0.23 mL/min/kg
- AUC ([3]; male, Sprague-Dawley, rat, plasma, iv, analyte = administered compound, read-out: AUC (converted)): 15800 ng·h/mL
- MRT ([3]; male, Sprague-Dawley, rat, plasma, iv, analyte = administered compound, read-out: MRT (converted)): 9.7 h
- half-life ([3]; male, Sprague-Dawley, rat, plasma, iv, analyte = administered compound, read-out: Terminal t1/2): 8.88 ± 2.96 h
- Vd ([3]; male, Sprague-Dawley, rat, plasma, iv, analyte = administered compound, read-out: Vss): 2.48 ± 0.867 L/kg
- anti-cancer effect (cytotoxicity) (MIAPaCa-2 cells): significant anti-cancer effects
- anti-cancer effect (cytotoxicity) (BxPC-3 cells [4]; 1 μM): significant anti-cancer effects
- viability at 1 µM (BxPC-3 cells [4]; Homo sapiens, read-out: cell viability): 54.1%
- anti-cancer effect (cytotoxicity) (B16 (melanoma cells)): significant anti-cancer effects
- anti-cancer effect versus vehicle treated controls [5]: neither gemcitabine nor gemcitabine derivatives had any significant anti-cancer effect
- apoptosis (cleaved PARP, TUNEL positive cells) (BxPC-3 cells [6]): induced apoptosis significantly

SMILES: C[C@@H](O)[C@H](N)C(=O)Nc1ccn([C@@H]2O[C@H](CO)[C@@H](O)C2(F)F)c(=O)n1 [Gem-Thr, (2S,3R)-2-Amino-N-(1-((2R,4R,5R)-3,3-difluoro-4-hydroxy-5-(hydroxylmethyl)tetra-hydrofuran-2-yl)-2-oxo-1,2-dihydropyrimidin-4-yl)-3-hydroxybutanamide2-(4-((pyridin-3-ylmethyl)amino)quinazolin-2-yl)phenol]
- AUC of sum of Gem-Thr and gemcitabine (metabolite) versus gemcitabine alone [3]: 3.62 fold
- AUC [3, 8]: 28564.2 ± 18040 ng·h/mL
- CL [3, 8]: 2.85 ± 1.33 mL/min/kg
- MRT [3, 8]: 3.953 ± 0.3478 h
- Terminal t1/2 [3, 8]: 3.9363 ± 0.849 h
- Vss [3, 8]: 0.66235 ± 0.2814 L/kg
- increase of systemic exposure (AUC of gemcitabine) versus free gemcitabine ([3]; formed gemcitabine vs free gemcitabine): 1.83 fold
- anti-cancer effect (cytotoxicity) (MIAPaCa-2 cells): most potent anticancer effect; also recorded: more effective than free gemcitabine
- anti-cancer effect (cytotoxicity) (BxPC-3 cells [4]; 1 μM): most potent anticancer effect; also recorded: more effective than free gemcitabine
- cell viability (BxPC-3 cells [4]; 1 μM): 44.7%
- fraction of Gem-Thr metabolized in rat plasma ([7]; 10 µM, after 8 h): 20%
- metabolic stability in rat plasma ([7]; 10 µM, up to 8 h): metabolically stable
- stability in PBS ([7]; PBS pH 7.4, 10 µM, up to 8 h): metabolically stable
- metabolic stability in rat liver microsomal fractions ([7]; rat liver microsomes 1 mg protein/mL, 10 µM, up to 8 h): metabolically stable
- apoptosis (cleaved PARP, TUNEL positive cells) (BxPC-3 cells [6]): induced apoptosis significantly
